Experimental data as given in patent US9833446B2, “Hedgehog pathway inhibition for cartilage tumor and metachondromatosis treatment” (Rhode Island Hospital, priority 2012, dated 2017).
“Also recorded” adds a separate entry of the source.

Columns and labels:
Ctsk-KO mice = test: Smoothened inhibitor treatment of Ctsk-KO mice (metachondromatosis model), X-ray, μ-CT and histology; format: in vivo; settings: for number of exostoses / size of exostoses: vs vehicle; for cartilage tumor condition / disease process in Shp2 mutant mice: systemic administration
Text: (§1) FIG. 4a, Left panel, is a bar graph of qPCR results showing increased Col2α1, Col10α1, Ihh, and Pthrp expression in laser-captured cartilaginous cells from exostoses, compared with normal articular cartilage cells (n=4, *p<0.05, Student t test). FIG. 4a, Right panel, is a series of photomicrographs showing immunostaining of paraffin sections from Perichondrial Groove of Ranvier region of Ctsk-KO and Control mice. Note the decreased number of p-Erk+ cells, but increased Ihh expression in Ctsk-KO, compared with Control, mice. FIG. 4b, Left Panel, is a photograph of an immunoblot showing Shp2 levels in ATDC5 chondroprogenitor cell lines stably expressing shRNAs against murine Ptpn11 (ATDC5-KD1, ATDC5-KD2, respectively) or a scrambled control hairpin. […] FIG. 4c is a bar graph showing that FGFR (PD173074, 10 nM) or MEK (UO126, 1 μM) inhibitor treatment of parental ATDC5 cells enhances Ihh and Pthrp expression, as shown by q-PCR (n=3, *p<0.05, Student t test). […] Images of representative posterior paws (i-iv) and knese (v-vii) taken pre-treatment (i, iii, v, vii) and post-treatment with vehicle (ii, vi) or Smoothened inhibitor (SMOi) (iv, viii) for 4 weeks. Note continued development of exostoses and endochromas in Vehicle-treated mice, and their amelioration in SMOi-treated group (arrows). Also, see FIGS. 7a,b and 8a,b.
All animals used for these experiments are shown. […] SMOi was administered by oral gavage to Ctsk-KO mice beginning at post-natal week 5 for four weeks, and mice were euthanized at week 9.
Microcomputed Tomography (μ-CT) and x-Ray Analysis. X-ray images of the entire skeleton, knees, metatarsals and phalanges were obtained immediately after euthanasia by using a Faxitron X-ray system (Wheeling, Ill.). After fixation in 4% PFA, μ-CT images of skeletal tissues were scanned with the desktop microcomputer graphic imaging system (μ-CT40, Scanco Medical AG, CH). The number and size of exostoses were measured visually based on x-ray images.
Ihh signaling leads to Pthrp production. […] If so, then blocking or attenuating Ihh signaling might slow and/or prevent MC development. To test this hypothesis, Control (wild type) and Ctsk-KO mice (5/group) were treated with the Smoothened inhibitor PF-04449913 (100 μg/g body weight) or vehicle control (0.5% methylcellulose) by daily gavage, beginning at 5 weeks of age and continuing for the succeeding 4 weeks. The skeletal phenotype was examined by X-ray, μ-CT, and histological analysis at the end of experiment.

Hedgehog pathway = test: qPCR of epiphyseal cartilage after oral Smoothened inhibitor in wild type mice; format: in vivo; settings: oral administration for 1 week, n=3, p<0.05
Text: FIG. 8a is a series of charts showing number and size of exostoses in Ctsk-KO mice post-treatment (n=5) with vehicle or Smoothened inhibitor (SMOi). […] FIG. 8b is a bar graph of qPCR results showing that oral administration of the Smoothened inhibitor SMOi to wild type mice for 1 week blunts the expression of Col2α1, Col10α1, Mmp13 and Gli1 in epiphyseal cartilage (n=3, *p<0.05, student t test).
(§2) Quantitative RT-PCR. RNA was extracted from cultured cells or cartilage lesions captured by laser dissection by using the RNeasy kit (Qiagen). cDNA was synthesized using iScript™cDNA Synthesis Kit (Bio-Rad) and q-PCR was performed by using the RT2SYBR®Green qPCR kit. All values were normalized to Gapdh levels, and qPCR data are expressed as fold-increases compared with controls.

ATDC5 cells = test: q-PCR of Ihh and Pthrp expression in inhibitor-treated parental ATDC5 cells; format: cell-based, murine; settings: PD173074 10 nM, UO126 1 μM, n=3, p<0.05
Text: as §1
Parental ATDC5 cells were purchased from the ATCC and cultured in complete DMEM/F12 medium (1:1) (Invitrogen) as described46. ATDC5 cells stably expressing short hairpin RNAs against murine Shp2 • (oligoA:5′[…] TCTGAATCTT TTTGGAAA (SEQ ID NO:1)); • Oligo B: 5-[…] (SEQ ID NO:2)) or its scrambled control were established by using pSuper(retro)/puro retroviral vector (Oligoengine, Inc) and pEcopac.
as §2
CCPs are rare, rendering detailed biochemical analyses of these cells unfeasible. We therefore tested the effects of Shp2 depletion in ATDC5 chondroid cells by stably expressing either of two shRNAs directed against murine Ptpn11. As in Ctsk-KO mice (FIG. 4a), Fgf18-evoked Erk activation was decreased, while Ihh and Pthrp levels were increased, in Shp2 deficient-ATDC5 cells, compared with cells expressing an shRNA control (FIG. 4b). Conversely, FGFR (PD173074) or MEK (UO126) inhibitor treatment of randomly growing, parental ATDC5 cells led to enhanced Ihh and Pthrp expression (FIG. 4c).

[1] = Ctsk-KO mice, 100 μg/g body weight, daily gavage, 4 weeks
[2] = Ctsk-KO mice, 100 μg/g body weight, daily gavage, 4 weeks, listed as SMOi

| SMILES | function of multiple joints (Ctsk-KO mice; [1]) | tumor formation (Faxitron radiographs) (Ctsk-KO mice; Ctsk-KO mice, 100 μg/g body weight, daily gavage, 4 weeks from week 5, vs vehicle (0.5% methylcellulose)) | number of exostoses (Ctsk-KO mice; [1]) | size of exostoses (Ctsk-KO mice; [1]) | number of exostoses (Ctsk-KO mice; [2]) | size of exostoses (Ctsk-KO mice; [2]) | cartilage tumor condition / disease process in Shp2 mutant mice (Ctsk-KO mice) | cartilage tumor condition / disease process in Shp2 mutant mice (Ctsk-KO mice; listed as PF-0444993) | expression of Col2α1 in epiphyseal cartilage (qPCR) (Hedgehog pathway) | expression of Col10α1 in epiphyseal cartilage (qPCR) (Hedgehog pathway) | expression of Gli1 in epiphyseal cartilage (qPCR) (Hedgehog pathway) | expression of Mmp13 in epiphyseal cartilage (qPCR) (Hedgehog pathway) | Ihh expression (q-PCR) (ATDC5 cells) | Pthrp expression (q-PCR) (ATDC5 cells) |
| --- | --- | --- | --- | --- | --- | --- | --- | --- | --- | --- | --- | --- | --- | --- |
| CN1CC[C@@H](NC(=O)Nc2ccc(C#N)cc2)C[C@@H]1c1nc2ccccc2[nH]1 [PF-04449913] | improved | ameliorates tumor formation | significantly reduced | significantly reduced | reduction of number; also recorded: decrease in average number of exostoses | reduction of number and size | reduces the cartilage tumor condition | can stop or slow down the disease process | blunts | blunts | blunts | blunts |  |  |
| N#CC(=C(/N)Sc1ccccc1N)/C(C#N)=C(/N)Sc1ccccc1N [UO126] |  |  |  |  |  |  |  |  |  |  |  |  | enhanced | enhanced |
| CCN(CC)CCCCNc1ncc2cc(-c3cc(OC)cc(OC)c3)c(NC(=O)NC(C)(C)C)nc2n1 [PD173074] |  |  |  |  |  |  |  |  |  |  |  |  | enhanced | enhanced |
